Experimental data: patent publication US10711000B2 (Fronthera U.S. Pharmaceuticals LLC, priority 2018, dated 2020)
pIC50: −log10 of the molar value. Like-named read-outs stand apart in the source and are kept apart here.

Target: T1, Autotaxin (Homo sapiens, UniProt Q13822)
T1 construct: from tissue; host or cells: pooled human plasma
Test: LPA formation in pooled human plasma (ex vivo autotaxin inhibition)
Type: biochemical
Settings: 2 hours incubation
Method: Autotaxin is a plasma phosphodiesterase that converts lysophosphatidylcholine (LPC) into lysophosphatidic acid (LPA), therefore LPA formation was used to evaluate the potency of autotaxin inhibitors. The potency of compound was evaluated ex vivo in pooled human plasma.
Various concentrations of compound were incubated with plasma for 2 hours, and the LPA 18:2 and 20:4 concentration was measured by LC/MS/MS. To determine the LPA18:2 or 20:4 concentration in study plasma, a 10× calibration standard of LPA 18:2 or 20:4 were prepared by serial dilution in butyl alcohol: 20000, 10000, 5000, 2000, 1000, 500, 200, 100, 50, 20, and 10 ng/mL. 3 μL of calibration standard solution was added into 27.0 μL of blank plasma in 1.5-mL microcentrifuge tubes to generate 1× calibration standards. The 30.0 μL of standards or study plasma was added into 1.5-mL microcentrifuge tubes. 200 μL of butyl alcohol (containing 25.0 ng/mL LPA17:0 for internal control) was added into each 1.5-mL microcentrifuge tube containing study plasma or calibration standards. After vortexing for 1 minute and centrifuging at 10000 rpm for 10 min, 180 μL of supernatant was transferred into a 96-well plate and the LPA18:2 concentration in the plasma was quantitated using LC/MS/MS together with standards. Briefly, 8 μL of the solutions were injected for LC-MS/MS analysis using an ACQUITY UPLC BEH C18 column (2.1×50 mm, 1.7 μm) with mobile phase A [20 mM NH4OAC in water (0.1% FA)] and phase B [5 mM NH4OAC in water/0.2% FA in ACN=5:95]. Mass spectrometer parameters optimization for LPA18:2 were performed by Deprotonated molecular ion at m/z 433.2 ([M−H]^−) for LPA18:2, 457.2 for LPA20:4 and abundant product ion at m/z 152.8 for both LPA18:2 and LPA20:4 were obtained. Quantitative data were acquired in multiple reaction monitoring (MRM) negative electrospray ionization mode
The inhibition rate of LPA formation was determined by comparing the levels of LPA in treated and non-treated plasma. The data was plotted against the corresponding concentration of compound and the IC50 was calculated through non-linear regression fitting.

[1] = LPA 18:2 by LC/MS/MS, read-out: LPA formation (18:2) (IC50)
[2] = LPA 20:4 by LC/MS/MS, read-out: LPA formation (20:4) (IC50)

SMILES	pIC50 [1]	pIC50 [2]
Cc1cc(N2CCN(C[C@H](O)CO)CC2)cc2c(N(C)c3nc(-c4ccc(F)cc4)c(C#N)s3)c(C3CC3)nn12 [Example 83, (S)-2-((2-cyclopropyl-5-(4-(2,3-dihydroxypropyl)piperazin-1-yl)-7-methylpyrazolo[1,5-a]pyridin-3-yl)(methyl)amino)-4-(4-fluorophenyl)thiazole-5-carbonitrile]	6.00 to 6.30	6.00 to 6.30
CCc1nn2c(C)cc(N3CC4(CN(C(=O)C5CCN(C)CC5)C4)C3)cc2c1N(C)c1nc(-c2ccc(F)cc2)c(C#N)s1 [Example 33, 2-((2-ethyl-7-methyl-5-(6-(1-methylpiperidine-4-carbonyl)-2,6-diazaspiro[3.3]heptan-2-yl)pyrazolo[1,5-a]pyridin-3-yl)(methyl)amino)-4-(4-fluorophenyl)thiazole-5-carbonitrile]	≥ 7.00	6.30 to 7.00
CCn1nc2c(C)cc(N3CCN(CC(=O)N4CC(O)C4)CC3)cc2c1N(C)c1nc(-c2ccc(F)cc2)c(C#N)s1 [Compound 125, 2-((2-ethyl-5-(4-(2-(3-hydroxyazetidin-1-yl)-2-oxoethyl)piperazin-1-yl)-7-methyl-2H-indazol-3-yl)(methyl)amino)-4-(4-fluorophenyl)thiazole-5-carbonitrile]	6.00 to 6.30	6.00 to 6.30
CCc1nn2ccc(N3CC4(CN(C(=O)N5CCN(C)CC5)C4)C3)cc2c1N(C)c1nc(-c2ccc(F)cc2)c(C#N)s1 [Example 14, 2-((2-ethyl-5-(6-(4-methylpiperazine-1-carbonyl)-2,6-diazaspiro[3.3]heptan-2-yl)pyrazolo[1,5-a]pyridin-3-yl)(methyl)amino)-4-(4-fluorophenyl)thiazole-5-carbonitrile]	≥ 7.00	≥ 7.00
CCc1nn2c(C)cc(N3CC4(CN(C(=O)C5(O)CCOCC5)C4)C3)cc2c1N(C)c1nc(-c2ccc(F)cc2)c(C#N)s1 [Example 56]	≥ 7.00	≥ 7.00
CCc1nn2ccc(N3CCN(CC(=O)N4CC(O)C4)CC3)cc2c1N(C)c1nc(-c2ccc(F)cc2)c(C#N)s1 [Example 1, 2-((2-ethyl-5-(4-(2-(3-hydroxyazetidin-1-yl)-2-oxoethyl)piperazin-1-yl)pyrazolo[1,5-a]pyridin-3-yl)(methyl)amino)-4-(4-fluorophenyl)thiazole-5-carbonitrile]	≥ 7.00	≥ 7.00
CCc1nn2c(C)cc(N3CC4(CN(C(=O)[C@@H](O)CO)C4)C3)cc2c1N(C)c1nc(-c2ccc(F)cc2)c(C#N)s1 (single isomer, unassigned) [Example 76]	≥ 7.00	6.30 to 7.00
CCc1nn2c(C)cc(N3CC4(CN(C(=O)[C@@H](C)O)C4)C3)cc2c1N(C)c1nc(-c2ccc(F)cc2)c(C#N)s1 [Example 63, (R)-2-((2-ethyl-5-(6-(2-hydroxypropanoyl)-2,6-diazaspiro[3.3]heptan-2-yl)-7-methylpyrazolo[1,5-a]pyridin-3-yl)(methyl)amino)-4-(4-fluorophenyl)thiazole-5-carbonitrile]	6.30 to 7.00	6.30 to 7.00
CCc1nn2c(C)cc(N3CC4(CN(C(=O)[C@@H]5COC[C@H]5O)C4)C3)cc2c1N(C)c1nc(-c2ccc(F)cc2)c(C#N)s1 (stereo in doubt) [Example 74, 2-((2-ethyl-5-(6-(4-hydroxytetrahydrofuran-3-carbonyl)-2,6-diazaspiro[3.3]heptan-2-yl)-7-methylpyrazolo[1,5-a]pyridin-3-yl)(methyl)amino)-4-(4-fluorophenyl)thiazole-5-carbonitrile]	6.30 to 7.00	6.30 to 7.00
CCc1nn2c(C)cc(N3CC4(CN(C(=O)[C@H](C)O)C4)C3)cc2c1N(C)c1nc(-c2ccc(F)cc2)c(C#N)s1 [Example 62, (S)-2-((2-ethyl-5-(6-(2-hydroxypropanoyl)-2,6-diazaspiro[3.3]heptan-2-yl)-7-methylpyrazolo[1,5-a]pyridin-3-yl)(methyl)amino)-4-(4-fluorophenyl)thiazole-5-carbonitrile]	6.30 to 7.00	6.30 to 7.00
